Laboratory results as given in PubChem BioAssay AID588447 (Southern Research Specialized Biocontainment Screening …, 2011).
Values joined by “and” are separate entries in the source; they are usually repeats but may differ in a detail not shown here. Equal values may be shown once. Active and inactive are the calls of the source. No rule for the calls is given here.

Tests used:
[1] = test system: Mycobacterium tuberculosis H37Rv growth, 7H9 media; experiment: Mycobacterium tuberculosis growth inhibition, dose response, 7H9 media, purified and synthesized compounds, set 8 (AID 588447); settings: for IC50: measured here: IC50 growth inhibition replicates
[2] = as above; settings: Mycobacterium tuberculosis H37Rv growth, 7H9 media

Row | Structure (SMILES) | IC50 [1] | other results
1 | O=C(NCCc1ccc(Cl)cc1)c1ccc(CNc2c(N3CCOCC3)c(=O)c2=O)cc1 | 8.33 µM and 7.05 µM | 
2 | O=C(c1ccc(CNc2c(N3CCCC3)c(=O)c2=O)cc1)N1CCc2ccccc2C1 | 7.01 µM | 
3 | CC1CCCN(C(=O)C2CCC(CNc3c(N4CCCCC4)c(=O)c3=O)CC2)C1 (centres undefined) | 39.8 µM | 
4 | O=C(c1ccc(CNc2c(N3CCCC3)c(=O)c2=O)cc1)N1CC=C(c2ccccc2)CC1 | 7.68 µM and 4.36 µM | IC90 [1]: 25.3 µM
5 | CC(=O)c1ccc(NC(=O)c2ccc(CNc3c(N4CCOCC4)c(=O)c3=O)cc2)cc1 | 75.7 µM | 
6 | CCOC(=O)CSc1ncnc2c1cnn2-c1ccc(C)cc1C | 4.29 µM | IC90 [1]: 5.85 µM
7 | CCOc1ccc(NC(=O)c2ccc(CNc3c(N4CCCC4)c(=O)c3=O)cc2)cc1 |  | growth inhibition ([2]; at 100 µM (top of the series)): -0.71% (inactive)
8 | COc1ccc(N2CCN(C(=O)c3ccc(CNc4c(N5CCOCC5)c(=O)c4=O)cc3)CC2)cc1 | 10.7 µM and 9.56 µM | 
9 | O=C(c1ccc(CNc2c(N3CCOCC3)c(=O)c2=O)cc1)N1CC=C(c2ccccc2)CC1 | 2.54 µM | IC90 [1]: 7.8 µM
10 | CC1CCCN(C(=O)c2ccc(CNc3c(N4CCCCC4)c(=O)c3=O)cc2)C1 (centres undefined) | 7 µM | 
11 | Cc1cccc(N2CCN(C(=O)c3ccc(CNc4c(N5CCC(C)CC5)c(=O)c4=O)cc3)CC2C)c1 (centres undefined) | 63.7 µM | 
12 | Cc1cccc(N2CCN(C(=O)c3ccc(CNc4c(N5CCC(C)CC5)c(=O)c4=O)cc3)CC2)c1C | 24.6 µM | growth inhibition ([2]; at 75 µM (top of the series)): 15.6% (inactive)
13 | O=C(C1CCC(CNc2c(N3CCCCC3)c(=O)c2=O)CC1)N1CCCCC1 (centres undefined) | 30.8 µM | 
14 | CC1CC(C)CN(C(=O)c2ccc(CNc3c(N4CCCC4)c(=O)c3=O)cc2)C1 (centres undefined) | 12.4 µM | 
15 | CC(C)OC(=O)CSc1ncnc2c1cnn2-c1ccccc1 | 34.1 µM | 
16 | O=C(NCCc1ccc(Cl)cc1)C1CCC(CNc2c(N3CCCCC3)c(=O)c2=O)CC1 (centres undefined) | 56.3 µM | 
17 | CCOC(=O)N1CCC(Nc2c(Nc3cccc(CC)c3)c(=O)c2=O)CC1 | 61.5 µM | IC90 [1]: 87.5 µM
18 | COC(=O)CSc1ncnc2c1cnn2-c1ccc(C)cc1C | 4.77 µM | IC90 [1]: 5.94 µM
19 | CC1CCN(C(=O)c2ccc(CNc3c(N4CCCC4)c(=O)c3=O)cc2)CC1 | 9.07 µM | 
20 | CCOC(=O)CSc1ncnc2c1cnn2-c1ccccc1 | 26.8 µM | 
21 | CCC(C)NC(=O)CSc1nc2ccccc2c(=O)[nH]1 (centres undefined) | 5.98 µM | IC90 [1]: 8.3 µM
22 | CC1CC(C)CN(C(=O)C2CCC(CNc3c(N4CCCCC4)c(=O)c3=O)CC2)C1 (centres undefined) | 19.9 µM and 26.3 µM | 
